Test results reported in patent US12091411B2, “IRAK degraders and uses thereof” (Kymera Therapeutics, Inc., priority 2022, dated 2024).
Read-outs that look alike come from different tables or passages of the source.

Target: T1, IRAK4 (Homo sapiens, UniProt Q9NWZ3)
T1 construct: Degradation of IRAK4 in OCI-LY10 was quantitatively measured using Meso Scale Discovery technology; endogenous in cells; host or cells: OCI-LY10
T1 sequence (Q9NWZ3 1-460): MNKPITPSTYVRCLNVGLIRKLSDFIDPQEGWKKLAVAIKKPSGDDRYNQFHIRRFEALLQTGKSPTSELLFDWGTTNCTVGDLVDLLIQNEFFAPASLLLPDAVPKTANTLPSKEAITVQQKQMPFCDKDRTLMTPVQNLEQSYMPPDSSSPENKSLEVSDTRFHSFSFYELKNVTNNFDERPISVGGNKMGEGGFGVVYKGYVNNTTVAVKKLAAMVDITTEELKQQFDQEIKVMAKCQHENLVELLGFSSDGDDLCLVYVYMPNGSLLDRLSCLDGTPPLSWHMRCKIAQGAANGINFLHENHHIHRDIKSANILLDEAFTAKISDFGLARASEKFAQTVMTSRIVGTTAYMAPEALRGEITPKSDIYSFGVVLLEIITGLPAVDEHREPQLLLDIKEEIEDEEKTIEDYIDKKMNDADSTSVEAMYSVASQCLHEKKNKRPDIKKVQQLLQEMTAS
Experiment: IRAK4 MSD Degradation in OCI-LY10
Format: cell-based
Conditions: OCI-LY10 cells, MSD
Summary of the method: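 DC50, from a three-parameter logistic fit and reported as letter bins A (<0.01 μM), B, C, D (>0.2 μM or not tested), reflects IRAK4 loss measured by MSD electrochemiluminescence in OCI-LY10 lysates. Treatment: 8 doses, 1:3 steps, top 1 to 10 μM, 4 to 24 h, 37 °C.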

[1] = 4 hrs incubation, read-out: IRAK4 degradation in OCI-LY10 at 4 hrs: DC50
[2] = 24 hrs incubation, read-out: IRAK4 degradation in OCI-LY10 at 24 hrs: DC50

| DC50 [1] | DC50 [2] | SMILES |
| --- | --- | --- |
| > 200 nM | > 200 nM | CC1CN(c2ccn3ncc(C(=O)Nc4cn([C@H]5CC[C@H](CN(C)C6CCN(c7cccc8c7n(C)c(=O)n8C7CCC(=O)NC7=O)CC6)CC5)nc4C(F)F)c3n2)CC(C)O1 (some centres unmarked) [I-359] |
| > 200 nM | < 10 nM | CN(C[C@H]1CC[C@H](n2cc(NC(=O)c3cnn4ccc(N5C[C@H]6CC[C@@H](C5)O6)nc34)c(C(F)F)n2)CC1)C1CCN(c2cccc3c2n(C)c(=O)n3C2CCC(=O)NC2=O)CC1 (some centres unmarked) [I-360] |
| > 200 nM | > 200 nM | CN(C[C@H]1CC[C@H](n2cc(NC(=O)c3cnn4ccc(C5COC5)nc34)c(C(F)F)n2)CC1)C1CCN(c2cccc3c2n(C)c(=O)n3C2CCC(=O)NC2=O)CC1 (some centres unmarked) [I-361] |
| < 10 nM | > 200 nM | Cn1c(=O)n(C2CCC(=O)NC2=O)c2cccc([C@H]3CC[C@H](CN4CCN(C[C@H]5CC[C@H](n6cc(NC(=O)c7cnn8ccc(N9C[C@H]%10C[C@@H]9CO%10)nc78)c(C(F)F)n6)CC5)CC4)CC3)c21 (some centres unmarked) [I-362] |
| > 200 nM | > 200 nM | Cn1c(=O)n(C2CCC(=O)NC2=O)c2cccc(N3CC[C@@H](CN4CCN(C[C@H]5CC[C@H](n6cc(NC(=O)c7cnn8ccc(N9C[C@H]%10C[C@@H]9CO%10)nc78)c(C(F)F)n6)CC5)CC4)C3)c21 (some centres unmarked) [I-363] |
| > 200 nM | > 200 nM | Cn1c(=O)n(C2CCC(=O)NC2=O)c2cccc(N3CC[C@H](CN4CCN(C[C@H]5CC[C@H](n6cc(NC(=O)c7cnn8ccc(N9C[C@H]%10C[C@@H]9CO%10)nc78)c(C(F)F)n6)CC5)CC4)C3)c21 (some centres unmarked) [I-364] |
| > 200 nM | > 200 nM | Cn1c(=O)n(C2CCC(=O)NC2=O)c2cccc(N3CCN([C@@H]4CCN(C[C@H]5CC[C@H](n6cc(NC(=O)c7cnn8ccc(N9C[C@H]%10C[C@@H]9CO%10)nc78)c(C(F)F)n6)CC5)CC4(F)F)CC3)c21 (some centres unmarked) [I-365] |
| > 200 nM | > 200 nM | Cn1c(=O)n(C2CCC(=O)NC2=O)c2cccc(N3CCN([C@H]4CCN(C[C@H]5CC[C@H](n6cc(NC(=O)c7cnn8ccc(N9C[C@H]%10C[C@@H]9CO%10)nc78)c(C(F)F)n6)CC5)CC4(F)F)CC3)c21 (some centres unmarked) [I-366] |
| > 200 nM | > 200 nM | Cn1c(=O)n(C2CCC(=O)NC2=O)c2cccc(N3CCC(N4CCN(C[C@H]5CC[C@H](n6cc(NC(=O)c7cnn8ccc(N9C[C@H]%10C[C@@H]9CO%10)nc78)c(C(F)F)n6)CC5)CC4)CC3)c21 (some centres unmarked) [I-367] |
| > 200 nM | > 200 nM | Cn1c(=O)n(C2CCC(=O)NC2=O)c2cccc(N3CCC(N(C[C@H]4CC[C@H](n5cc(NC(=O)c6cnn7cccnc67)c(C(F)F)n5)CC4)C(F)(F)F)CC3)c21 (some centres unmarked) [I-368] |
| < 10 nM | > 200 nM | Cn1c(=O)n(C2CCC(=O)NC2=O)c2cccc(C#CCN3CCN(Cc4ccc(-n5cc(NC(=O)c6cnn7ccc(N8C[C@H]9C[C@@H]8CO9)nc67)c(C(F)F)n5)cc4)CC3)c21 (some centres unmarked) [I-369] |
| 10 to 100 nM | > 200 nM | Cn1c(=O)n(C2CCC(=O)NC2=O)c2cccc(C#CCOC3CCN(Cc4ccc(-n5cc(NC(=O)c6cnn7ccc(N8C[C@H]9C[C@@H]8CO9)nc67)c(C(F)F)n5)cc4)CC3)c21 (some centres unmarked) [I-370] |
| > 200 nM | > 200 nM | Cn1c(=O)n(C2CCC(=O)NC2=O)c2cccc(C#CCOc3ccc(CN4CCC(n5cc(NC(=O)c6cnn7ccc(N8CC9C[C@@H]8CO9)nc67)c(C(F)F)n5)CC4)cc3)c21 (some centres unmarked) [I-371] |
| > 200 nM | > 200 nM | Cn1c(=O)n(C2CCC(=O)NC2=O)c2cccc(C#CCc3ccc(CN4CCC(n5cc(NC(=O)c6cnn7ccc(N8CC9C[C@@H]8CO9)nc67)c(C(F)F)n5)CC4)cc3)c21 (some centres unmarked) [I-372] |
| > 200 nM | > 200 nM | CN(CC1CCN(c2cccc3c2n(C)c(=O)n3C2CCC(=O)NC2=O)CC1)c1ccc(-n2cc(NC(=O)c3cnn4cccnc34)c(C(F)F)n2)cc1 (centres unmarked) [I-373] |
| 10 to 100 nM | > 200 nM | Cn1c(=O)n(C2CCC(=O)NC2=O)c2cccc(C#CCC3CCN(C[C@H]4CC[C@H](n5cc(NC(=O)c6cnn7ccc(N8C[C@H]9C[C@@H]8CO9)nc67)c(C(F)F)n5)CC4)CC3(F)F)c21 (some centres unmarked) [I-374] |
| > 200 nM | > 200 nM | Cn1c(=O)n(C2CCC(=O)NC2=O)c2cccc(C#CCN3CCC(C[C@H]4CC[C@H](n5cc(NC(=O)c6cnn7ccc(N8C[C@H]9C[C@@H]8CO9)nc67)c(C(F)F)n5)CC4)C(F)(F)C3)c21 (some centres unmarked) [I-375] |
| > 200 nM | > 200 nM | CN(C[C@H]1CC[C@H](n2cc(NC(=O)c3cnn4cccnc34)c(C(F)F)n2)CC1)C1CCN(c2cccc3c2n(C)c(=O)n3C2CCC(=O)NC2=O)CC1(F)F (some centres unmarked) [I-376] |
| > 200 nM | > 200 nM | CN(Cc1ccc(-n2cc(NC(=O)c3cnn4cccnc34)c(C(F)F)n2)cc1)C1CCN(c2cccc3c2n(C)c(=O)n3C2CCC(=O)NC2=O)CC1(F)F (centres unmarked) [I-377] |

| DC50 [1] | DC50 [2] | SMILES |
| --- | --- | --- |
| > 200 nM | > 200 nM | CN(C[C@H]1CC[C@H](n2cc(NC(=O)c3cnn4cccnc34)c(C(F)F)n2)CC1)c1ccc(-c2cccc3c2n(C)c(=O)n3C2CCC(=O)NC2=O)cc1 (some centres unmarked) [I-378] |
| > 200 nM | > 200 nM | Cn1c(=O)n(C2CCC(=O)NC2=O)c2cccc(C#CC[C@H]3CN(CC4CCC(n5cc(NC(=O)c6cnn7ccc(N8C[C@H]9C[C@@H]8CO9)nc67)c(C(F)F)n5)CC4)CCO3)c21 (some centres unmarked) [I-379] |
| > 200 nM | > 200 nM | Cn1c(=O)n(C2CCC(=O)NC2=O)c2cccc(C#CC[C@H]3CN(Cc4ccc(-n5cc(NC(=O)c6cnn7ccc(N8C[C@H]9C[C@@H]8CO9)nc67)c(C(F)F)n5)cc4)CCO3)c21 (some centres unmarked) [I-380] |
| > 200 nM | > 200 nM | Cn1c(=O)n(C2CCC(=O)NC2=O)c2cccc(C[C@H]3CN(C[C@H]4CC[C@H](n5cc(NC(=O)c6cnn7cccnc67)c(C(F)F)n5)CC4)CCO3)c21 (some centres unmarked) [I-381] |
| > 200 nM | > 200 nM | Cn1c(=O)n(C2CCC(=O)NC2=O)c2cccc(C[C@H]3CN(Cc4ccc(-n5cc(NC(=O)c6cnn7cccnc67)c(C(F)F)n5)cc4)CCO3)c21 (some centres unmarked) [I-382] |
| > 200 nM | > 200 nM | Cn1c(=O)n(C2CCC(=O)NC2=O)c2cccc(C[C@H]3CN(Cc4ccc(-n5cc(NC(=O)c6cnn7ccc(N8C[C@H]9C[C@@H]8CO9)nc67)c(C(F)F)n5)cc4)CCO3)c21 (some centres unmarked) [I-384] |
| < 10 nM | > 200 nM | Cn1c(=O)n(C2CCC(=O)NC2=O)c2cccc(CC[C@H]3CN(C[C@H]4CC[C@H](n5cc(NC(=O)c6cnn7ccc(N8C[C@H]9C[C@@H]8CO9)nc67)c(C(F)F)n5)CC4)CCO3)c21 (some centres unmarked) [I-385] |
| > 200 nM | > 200 nM | Cn1c(=O)n(C2CCC(=O)NC2=O)c2cccc(CC[C@H]3CN(Cc4ccc(-n5cc(NC(=O)c6cnn7ccc(N8C[C@H]9C[C@@H]8CO9)nc67)c(C(F)F)n5)cc4)CCO3)c21 (some centres unmarked) [I-386] |
| < 10 nM | > 200 nM | Cn1c(=O)n(C2CCC(=O)NC2=O)c2cccc(CC[C@H]3CN(C[C@H]4CC[C@H](n5cc(NC(=O)c6cnn7cccnc67)c(C(F)F)n5)CC4)CCO3)c21 (some centres unmarked) [I-387] |
| > 200 nM | > 200 nM | Cn1c(=O)n(C2CCC(=O)NC2=O)c2cccc(CC[C@H]3CN(Cc4ccc(-n5cc(NC(=O)c6cnn7cccnc67)c(C(F)F)n5)cc4)CCO3)c21 (some centres unmarked) [I-388] |
| 10 to 100 nM | > 200 nM | Cn1c(=O)n(C2CCC(=O)NC2=O)c2cccc(C#CC[C@@H]3CN(C[C@H]4CC[C@H](n5cc(NC(=O)c6cnn7ccc(N8C[C@H]9C[C@@H]8CO9)nc67)c(C(F)F)n5)CC4)CCO3)c21 (some centres unmarked) [I-389] |
| > 200 nM | > 200 nM | Cn1c(=O)n(C2CCC(=O)NC2=O)c2cccc(C#CC[C@@H]3CN(Cc4ccc(-n5cc(NC(=O)c6cnn7ccc(N8C[C@H]9C[C@@H]8CO9)nc67)c(C(F)F)n5)cc4)CCO3)c21 (some centres unmarked) [I-390] |
| > 200 nM | > 200 nM | Cn1c(=O)n(C2CCC(=O)NC2=O)c2cccc(C[C@@H]3CN(C[C@H]4CC[C@H](n5cc(NC(=O)c6cnn7cccnc67)c(C(F)F)n5)CC4)CCO3)c21 (some centres unmarked) [I-391] |
| > 200 nM | > 200 nM | Cn1c(=O)n(C2CCC(=O)NC2=O)c2cccc(C[C@@H]3CN(Cc4ccc(-n5cc(NC(=O)c6cnn7cccnc67)c(C(F)F)n5)cc4)CCO3)c21 (some centres unmarked) [I-392] |
| > 200 nM | > 200 nM | Cn1c(=O)n(C2CCC(=O)NC2=O)c2cccc(C[C@@H]3CN(C[C@H]4CC[C@H](n5cc(NC(=O)c6cnn7ccc(N8C[C@H]9C[C@@H]8CO9)nc67)c(C(F)F)n5)CC4)CCO3)c21 (some centres unmarked) [I-393] |
| > 200 nM | > 200 nM | Cn1c(=O)n(C2CCC(=O)NC2=O)c2cccc(C[C@@H]3CN(Cc4ccc(-n5cc(NC(=O)c6cnn7ccc(N8C[C@H]9C[C@@H]8CO9)nc67)c(C(F)F)n5)cc4)CCO3)c21 (some centres unmarked) [I-394] |
| > 200 nM | > 200 nM | Cn1c(=O)n(C2CCC(=O)NC2=O)c2cccc(CC[C@@H]3CN(C[C@H]4CC[C@H](n5cc(NC(=O)c6cnn7ccc(N8C[C@H]9C[C@@H]8CO9)nc67)c(C(F)F)n5)CC4)CCO3)c21 (some centres unmarked) [I-395] |
| > 200 nM | > 200 nM | Cn1c(=O)n(C2CCC(=O)NC2=O)c2cccc(CC[C@@H]3CN(Cc4ccc(-n5cc(NC(=O)c6cnn7ccc(N8C[C@H]9C[C@@H]8CO9)nc67)c(C(F)F)n5)cc4)CCO3)c21 (some centres unmarked) [I-396] |
